# Measured values from PMC5218480 (PLoS ONE, 2017).
# System: MV-4-11 cells
# Assay: Gene expression microarray analysis (Affymetrix PrimeView) and GSEA
# Type: cell-based, human
# Set-up: RFU PODN (11730768_x_at) / Fold change /veh PODN (11730768_x_at) / RFU LINC00158 (11744669_a_at) / Fold change /veh LINC00158 (11744669_a_at) / RFU DUSP10 (11751237_a_at) / Fold change /veh DUSP10 (11751237_a_at) / RFU ID3 (11757404_x_at) / Fold change /veh ID3 (11757404_x_at) / RFU PLEKHG5 (11737974_s_at) / Fold change /veh PLEKHG5 (11737974_s_at) / RFU LRRC4B (11730491_at) / Fold change /veh LRRC4B (11730491_at) / RFU GIMAP4 (11747438_a_at) / Fold change /veh GIMAP4 (11747438_a_at) / RFU KRT8 (11758183_x_at) / Fold change /veh KRT8 (11758183_x_at) / RFU CNN1 (11734310_a_at) / Fold change /veh CNN1 (11734310_a_at) / RFU VPS37D (11726825_at) / Fold change /veh VPS37D (11726825_at) / RFU C10orf10 (11716522_x_at) / Fold change /veh C10orf10 (11716522_x_at) / RFU KIR2DL2 /// KIR2DL4 /// KIR2DL5A /// KIR2DL5B /// KIR2DS1 /// KIR2DS2 /// KIR2DS3 /// KIR2DS4 /// KIR3DL3 /// KIR3DL3 /// KIR3DS1 (11738374_at) / Fold change /veh KIR2DL2 /// KIR2DL4 /// KIR2DL5A /// KIR2DL5B /// KIR2DS1 /// KIR2DS2 /// KIR2DS3 /// KIR2DS4 /// KIR3DL3 /// KIR3DL3 /// KIR3DS1 (11738374_at) / RFU C1QL1 (11718748_at) / Fold change /veh C1QL1 (11718748_at) / RFU TMPRSS4 (11747572_a_at) / Fold change /veh TMPRSS4 (11747572_a_at) / RFU HAMP (11756126_x_at) / Fold change /veh HAMP (11756126_x_at) / RFU RNFT2 (11725882_a_at) / Fold change /veh RNFT2 (11725882_a_at) / RFU NR4A2 (11747474_a_at) / Fold change /veh NR4A2 (11747474_a_at) / RFU ABCC12 (11746883_a_at) / Fold change /veh ABCC12 (11746883_a_at) / RFU TMEM136 (11760407_x_at) / Fold change /veh TMEM136 (11760407_x_at) / RFU CLDN22 /// WWC2 (11732394_at) / Fold change /veh CLDN22 /// WWC2 (11732394_at) / RFU HLA-DPB1 (11760878_x_at) / Fold change /veh HLA-DPB1 (11760878_x_at) / RFU SPINT1 (11716480_a_at) / Fold change /veh SPINT1 (11716480_a_at) / RFU GAP43 (11754022_s_at) / Fold change /veh GAP43 (11754022_s_at) / RFU A4GNT (11735810_at) / Fold change /veh A4GNT (11735810_at) / RFU PRB3 (11715151_x_at) / Fold change /veh PRB3 (11715151_x_at) / RFU TUBB4B (11761932_at) / Fold change /veh TUBB4B (11761932_at) / RFU CAPN14 (11732068_a_at) / Fold change /veh CAPN14 (11732068_a_at) / RFU TMCC2 (11721928_a_at) / Fold change /veh TMCC2 (11721928_a_at) / RFU IRGQ (11745062_a_at) / Fold change /veh IRGQ (11745062_a_at) / RFU FAM174B (11720279_a_at) / Fold change /veh FAM174B (11720279_a_at) / RFU TMPRSS4 (11748680_a_at) / Fold change /veh TMPRSS4 (11748680_a_at) / RFU FAM212B (11763350_a_at) / Fold change /veh FAM212B (11763350_a_at) / RFU PLEKHG5 (11743358_a_at) / Fold change /veh PLEKHG5 (11743358_a_at) / RFU ZSCAN30 (11745921_a_at) / Fold change /veh ZSCAN30 (11745921_a_at) / RFU CMKLR1 (11741424_a_at) / Fold change /veh CMKLR1 (11741424_a_at) / RFU LOC101060620 /// MAPK8IP1 (11723275_at) / Fold change /veh LOC101060620 /// MAPK8IP1 (11723275_at) / RFU SPTSSB (11747773_x_at) / Fold change /veh SPTSSB (11747773_x_at) / RFU PRSS12 (11739890_at) / Fold change /veh PRSS12 (11739890_at) / RFU BIN1 (11741810_x_at) / Fold change /veh BIN1 (11741810_x_at) / RFU WNT11 (11732464_a_at) / Fold change /veh WNT11 (11732464_a_at) / RFU C10orf10 (11716521_a_at) / Fold change /veh C10orf10 (11716521_a_at) / RFU C5orf56 (11738089_at) / Fold change /veh C5orf56 (11738089_at) / RFU CYB561 (11721691_x_at) / Fold change /veh CYB561 (11721691_x_at) / RFU ANKRD19P (11752326_a_at) / Fold change /veh ANKRD19P (11752326_a_at) / RFU OR2T12 /// OR2T33 /// OR2T8 (11738714_s_at) / Fold change /veh OR2T12 /// OR2T33 /// OR2T8 (11738714_s_at) / RFU VCAN (11748164_a_at) / Fold change /veh VCAN (11748164_a_at) / RFU JSRP1 (11732532_at) / Fold change /veh JSRP1 (11732532_at) / RFU KRTAP10-11 (11738290_x_at) / Fold change /veh KRTAP10-11 (11738290_x_at) / RFU MYO3A (11730013_a_at) / Fold change /veh MYO3A (11730013_a_at) / RFU EBF3 (11725865_a_at) / Fold change /veh EBF3 (11725865_a_at) / RFU CAMK2N1 (11719241_x_at) / Fold change /veh CAMK2N1 (11719241_x_at) / RFU C5orf56 (11738088_a_at) / Fold change /veh C5orf56 (11738088_a_at) / RFU OLFML3 (11715873_a_at) / Fold change /veh OLFML3 (11715873_a_at) / RFU LOC100653217 /// NTM (11731650_a_at) / Fold change /veh LOC100653217 /// NTM (11731650_a_at) / RFU MAPK11 (11762145_a_at) / Fold change /veh MAPK11 (11762145_a_at) / RFU FIZ1 (11724087_x_at) / Fold change /veh FIZ1 (11724087_x_at) / RFU OASL (11726364_x_at) / Fold change /veh OASL (11726364_x_at) / RFU SOX15 (11748057_x_at) / Fold change /veh SOX15 (11748057_x_at) / RFU CD79A (11719716_a_at) / Fold change /veh CD79A (11719716_a_at) / RFU HIST1H1D (11736915_at) / Fold change /veh HIST1H1D (11736915_at) / RFU CASKIN2 (11723855_a_at) / Fold change /veh CASKIN2 (11723855_a_at) / RFU LOC730098 (11760151_x_at) / Fold change /veh LOC730098 (11760151_x_at) / RFU OR4N2 (11742367_at) / Fold change /veh OR4N2 (11742367_at) / RFU PRRT2 (11749266_a_at) / Fold change /veh PRRT2 (11749266_a_at) / RFU SNX32 (11753110_a_at) / Fold change /veh SNX32 (11753110_a_at) / RFU CDHR5 (11726645_a_at) / Fold change /veh CDHR5 (11726645_a_at) / RFU RCAN1 (11760418_a_at) / Fold change /veh RCAN1 (11760418_a_at) / RFU FAM167A (11723789_a_at) / Fold change /veh FAM167A (11723789_a_at) / RFU FAM26E (11764081_at) / Fold change /veh FAM26E (11764081_at) / RFU ISYNA1 (11749810_s_at) / Fold change /veh ISYNA1 (11749810_s_at) / RFU ACY1 (11761880_at) / Fold change /veh ACY1 (11761880_at) / RFU 11764098_at / Fold change /veh 11764098_at / RFU SAMD14 (11745864_x_at) / Fold change /veh SAMD14 (11745864_x_at) / RFU NPB (11741838_a_at) / Fold change /veh NPB (11741838_a_at) / RFU TMPRSS6 (11731388_a_at) / Fold change /veh TMPRSS6 (11731388_a_at) / RFU KRTAP10-2 (11738614_at) / Fold change /veh KRTAP10-2 (11738614_at) / RFU ARHGAP8 /// PRR5-ARHGAP8 (11727945_x_at) / Fold change /veh ARHGAP8 /// PRR5-ARHGAP8 (11727945_x_at) / RFU KRTAP5-7 /// NADSYN1 (11734609_at) / Fold change /veh KRTAP5-7 /// NADSYN1 (11734609_at) / RFU RASL12 (11751679_a_at) / Fold change /veh RASL12 (11751679_a_at) / RFU CDKN2B (11736163_a_at) / Fold change /veh CDKN2B (11736163_a_at) / RFU PRF1 (11729649_at) / Fold change /veh PRF1 (11729649_at) / RFU, ZNF638 /// ZNF638-IT1 / Fold change vs veh, ZNF638 /// ZNF638-IT1 / RFU, PANK3 / Fold change vs veh, PANK3 / RFU, SH3YL1 / Fold change vs veh, SH3YL1 / RFU, ZEB2 / Fold change vs veh, ZEB2 / RFU, NRIP1 / Fold change vs veh, NRIP1 / RFU, PTTG1IP / Fold change vs veh, PTTG1IP / RFU, CAPN2 / Fold change vs veh, CAPN2 / RFU, MED14 / Fold change vs veh, MED14 / RFU, SNORA58 / Fold change vs veh, SNORA58 / RFU, C1orf63 / Fold change vs veh, C1orf63 / RFU, LRRFIP1 / Fold change vs veh, LRRFIP1 / RFU, NDUFAF7 / Fold change vs veh, NDUFAF7 / RFU, SLC12A2 / Fold change vs veh, SLC12A2 / RFU, IBTK / Fold change vs veh, IBTK / RFU, ESF1 / Fold change vs veh, ESF1 / Fold change vs veh, TMEM50B / RFU, TAOK1 / Fold change vs veh, TAOK1 / RFU, ACBD3 / Fold change vs veh, ACBD3 / RFU, TMA16 / Fold change vs veh, TMA16 / RFU, RWDD3 / Fold change vs veh, RWDD3 / RFU, BCAT1 / Fold change vs veh, BCAT1 / RFU, EDEM3 / Fold change vs veh, EDEM3 / RFU, TMEM33 / Fold change vs veh, TMEM33 / RFU, WDR75 / Fold change vs veh, WDR75 / RFU, AHCTF1 / Fold change vs veh, AHCTF1 / RFU, TFRC / Fold change vs veh, TFRC / RFU, ZDHHC17 / Fold change vs veh, ZDHHC17 / RFU, NOM1 / Fold change vs veh, NOM1 / RFU, ARL8B / Fold change vs veh, ARL8B / RFU, ZBTB11 / Fold change vs veh, ZBTB11 / RFU, TAMM41 / Fold change vs veh, TAMM41 / RFU, KIAA1704 /// LOC100996395 / Fold change vs veh, KIAA1704 /// LOC100996395 / RFU, ING1 / Fold change vs veh, ING1 / RFU, TRMT61B / Fold change vs veh, TRMT61B / RFU, FUBP3 / Fold change vs veh, FUBP3 / RFU, TP53 / Fold change vs veh, TP53 / RFU, TNKS2 / Fold change vs veh, TNKS2 / RFU, ZFP14 / Fold change vs veh, ZFP14 / RFU, ACTR2 / Fold change vs veh, ACTR2 / RFU, PPP3R1 / Fold change vs veh, PPP3R1 / RFU, PIK3R1 / Fold change vs veh, PIK3R1 / RFU, HNRNPA1 / Fold change vs veh, HNRNPA1 / RFU, RNF170 / Fold change vs veh, RNF170 / RFU, ZNF28 / Fold change vs veh, ZNF28 / RFU, RNGTT / Fold change vs veh, RNGTT / RFU, OGT / Fold change vs veh, OGT / RFU, BRD1 / Fold change vs veh, BRD1 / RFU, MARS / Fold change vs veh, MARS / RFU, ZNF655 / Fold change vs veh, ZNF655 / RFU, FAHD1 / Fold change vs veh, FAHD1 / RFU, BDP1 / Fold change vs veh, BDP1 / RFU, LRRCC1 / Fold change vs veh, LRRCC1 / RFU, ARID1A / Fold change vs veh, ARID1A / RFU, ZNF146 / Fold change vs veh, ZNF146 / RFU, ZNF330 / Fold change vs veh, ZNF330 / RFU, GPN3 / Fold change vs veh, GPN3 / RFU, C9orf123 / Fold change vs veh, C9orf123 / RFU, N4BP2L2 / Fold change vs veh, N4BP2L2 / RFU, ARFIP1 / Fold change vs veh, ARFIP1 / RFU, FAM179B / Fold change vs veh, FAM179B / RFU, BCL10 / Fold change vs veh, BCL10 / RFU, UHRF1BP1L / Fold change vs veh, UHRF1BP1L / RFU, BET1 / Fold change vs veh, BET1 / RFU, CNOT2 / Fold change vs veh, CNOT2 / RFU, ZNF268 / Fold change vs veh, ZNF268 / Fold change vs veh, ZNF507 / RFU, DGCR2 / Fold change vs veh, DGCR2 / RFU, WDSUB1 / Fold change vs veh, WDSUB1 / Fold change vs veh, HSP90B1 /// MIR3652 / RFU, ADSS / Fold change vs veh, ADSS / RFU, GK / Fold change vs veh, GK / RFU, ZNF148 / Fold change vs veh, ZNF148 / RFU, TAF9 / Fold change vs veh, TAF9 / RFU, SLC1A5 / Fold change vs veh, SLC1A5 / RFU, SLMO2 / Fold change vs veh, SLMO2 / RFU, ABCC4 / Fold change vs veh, ABCC4 / RFU, LOC101060439 /// RAP1B / Fold change vs veh, LOC101060439 /// RAP1B / RFU, RFX7 / Fold change vs veh, RFX7 / RFU, GTPBP10 / Fold change vs veh, GTPBP10 / RFU, CNEP1R1 / Fold change vs veh, CNEP1R1 / RFU, BIVM-ERCC5 /// ERCC5 / Fold change vs veh, BIVM-ERCC5 /// ERCC5 / RFU, ILF3 / Fold change vs veh, ILF3 / RFU 11762660_at / Fold change /veh 11762660_at / RFU VCAN (11757783_s_at) / Fold change /veh VCAN (11757783_s_at) / RFU DDX43 (11728927_at) / Fold change /veh DDX43 (11728927_at) / RFU KRT8 (11758188_x_at) / Fold change /veh KRT8 (11758188_x_at) / RFU NKD1 (11759106_at) / Fold change /veh NKD1 (11759106_at) / RFU SRD5A1 (11742802_a_at) / Fold change /veh SRD5A1 (11742802_a_at) / RFU TPSAB1 /// TPSB2 (11721975_s_at) / Fold change /veh TPSAB1 /// TPSB2 (11721975_s_at) / RFU GSTM3 (11746129_a_at) / Fold change /veh GSTM3 (11746129_a_at) / RFU IL23R (11737362_x_at) / Fold change /veh IL23R (11737362_x_at) / RFU TMEM51 (11727254_a_at) / Fold change /veh TMEM51 (11727254_a_at) / RFU PIWIL2 (11732686_x_at) / Fold change /veh PIWIL2 (11732686_x_at) / RFU ORM1 (11744905_x_at) / Fold change /veh ORM1 (11744905_x_at) / RFU CCDC152 (11743942_at) / Fold change /veh CCDC152 (11743942_at) / RFU ECM1 (11717891_a_at) / Fold change /veh ECM1 (11717891_a_at) / RFU IL23R (11748794_a_at) / Fold change /veh IL23R (11748794_a_at) / RFU TNFAIP8L3 (11732012_x_at) / Fold change /veh TNFAIP8L3 (11732012_x_at) / RFU MBOAT4 (11741988_at) / Fold change /veh MBOAT4 (11741988_at) / RFU 11764193_at / Fold change /veh 11764193_at / RFU TMEM53 (11763286_at) / Fold change /veh TMEM53 (11763286_at) / RFU MAGEB2 (11727129_at) / Fold change /veh MAGEB2 (11727129_at) / RFU TMEM200A (11744735_a_at) / Fold change /veh TMEM200A (11744735_a_at) / RFU CCDC152 (11751479_a_at) / Fold change /veh CCDC152 (11751479_a_at) / RFU FAM211A (11726209_a_at) / Fold change /veh FAM211A (11726209_a_at) / RFU RGS16 (11746705_a_at) / Fold change /veh RGS16 (11746705_a_at) / RFU VCAN (11755009_s_at) / Fold change /veh VCAN (11755009_s_at) / RFU RHOB (11743442_s_at) / Fold change /veh RHOB (11743442_s_at) / RFU RGS16 (11720943_a_at) / Fold change /veh RGS16 (11720943_a_at) / RFU RGS16 (11720944_at) / Fold change /veh RGS16 (11720944_at) / RFU, VPS4B / Fold change vs veh, VPS4B / RFU, CREB1 / Fold change vs veh, CREB1 / RFU, DNAJC13 / Fold change vs veh, DNAJC13 / RFU, GNAQ / Fold change vs veh, GNAQ / RFU, CDK5R1 / Fold change vs veh, CDK5R1 / RFU, ZRANB3 / Fold change vs veh, ZRANB3 / RFU, CUL4A / Fold change vs veh, CUL4A / RFU, CCNY / Fold change vs veh, CCNY / RFU, UFL1 / Fold change vs veh, UFL1 / RFU, COG3 / Fold change vs veh, COG3 / RFU, DIAPH2 / Fold change vs veh, DIAPH2 / RFU, SKA2 / Fold change vs veh, SKA2 / RFU, AFF3 / Fold change vs veh, AFF3 / RFU, LMF1 / Fold change vs veh, LMF1 / RFU, IPO11 / Fold change vs veh, IPO11 / RFU, DFFB / Fold change vs veh, DFFB / RFU, FOXP1 / Fold change vs veh, FOXP1 / RFU, CARD8 / Fold change vs veh, CARD8 / RFU, STRN3 / Fold change vs veh, STRN3 / RFU, ADK / Fold change vs veh, ADK / RFU, RASSF2 / Fold change vs veh, RASSF2 / RFU, WIPF1 / Fold change vs veh, WIPF1 / RFU, LARP1B / Fold change vs veh, LARP1B / RFU, RASA1 / Fold change vs veh, RASA1 / RFU, RB1 / Fold change vs veh, RB1 / RFU, PPFIA1 / Fold change vs veh, PPFIA1 / RFU, MAT2A / Fold change vs veh, MAT2A / RFU, CCT5 / Fold change vs veh, CCT5 / RFU, WDR92 / Fold change vs veh, WDR92 / RFU, CUX1 / Fold change vs veh, CUX1 / RFU, TTC7A / Fold change vs veh, TTC7A / RFU, TMEM135 / Fold change vs veh, TMEM135 / RFU, DEPTOR / Fold change vs veh, DEPTOR / RFU, CPM / Fold change vs veh, CPM / RFU, DNAJB6 / Fold change vs veh, DNAJB6 / RFU, CACNA2D3 / Fold change vs veh, CACNA2D3 / RFU, DTX4 / Fold change vs veh, DTX4 / RFU, TFCP2 / Fold change vs veh, TFCP2 / RFU, GMCL1 /// GMCL1P1 / Fold change vs veh, GMCL1 /// GMCL1P1 / RFU, AEBP2 / Fold change vs veh, AEBP2 / RFU, SNHG1 /// SNORD22 /// SNORD25 /// SNORD26 /// SNORD27 /// SNORD28 /// SNORD29 /// SNORD31 / Fold change vs veh, SNHG1 /// SNORD22 /// SNORD25 /// SNORD26 /// SNORD27 /// SNORD28 /// SNORD29 /// SNORD31 / Fold change (Aza/veh), C12orf56 (ProbeSet 11735607_a_at) / Fold change (ACY-1035/veh), C12orf56 (ProbeSet 11735607_a_at) / Fold change (Aza/veh), FGFR1OP (ProbeSet 11751329_s_at) / Fold change (ACY-1035/veh), FGFR1OP (ProbeSet 11751329_s_at) / Fold change (Aza/veh), VPS36 (ProbeSet 11739960_a_at) / Fold change (ACY-1035/veh), VPS36 (ProbeSet 11739960_a_at) / RFU SYPL1 (11715823_x_at) / Fold change /veh SYPL1 (11715823_x_at) / RFU IGFBP7 (11715501_s_at) / Fold change /veh IGFBP7 (11715501_s_at) / RFU REEP3 (11722064_at) / Fold change /veh REEP3 (11722064_at) / RFU IGLL1 (11728026_x_at) / Fold change /veh IGLL1 (11728026_x_at): dose or concentration left out as unconfirmed
# Conditions: MV-4-11 cells, 48 hours
smiles,measurement,value
Nc1ncn([C@@H]2O[C@H](CO)[C@@H](O)[C@H]2O)c(=O)n1 [azacitidine],Fold change /veh OASL (11726364_x_at),0.86
